Experimental data taken from US9814739B2, “2′-ethynyl nucleoside derivatives for treatment of viral infections” (priority 2012, dated 2017).
Like-named read-outs stand apart in the source and are kept apart here.

What was measured:
Dengue virus = assay: Dengue assay on cryopreserved PBMC cells (plaque reduction readout on BHK cells); format: cell-based; details: human PBMC cells
Description: Cryopreserved human PBMC cells were purchased from approved vendors. It was then thawed according to manufacturer's instructions and suspended in RPMI medium supplemented with 1% penicillin/streptomycin solution and 10% Fetal Calf serum. The cells were then counted and viability checked (viability should be at least 70%). After centrifuging and removing the media, the cells were diluted to 1×10^7 cells/mL in RPMI medium supplemented with 1% penicillin/streptomycin. 50 μl of the cells were then dispensed into 96-well tissue culture plate constituting 5×10^5 cells/well. Next, virus with humanized 4G2 mixture was prepared for infection. Briefly, virus (2×10^7 pfu/ml) was mixed with humanized 4G2 antibody with the final antibody concentration of 0.38 μg/ml and incubated for 30 minutes at 4° C. to assist virus/antibody complex formation. The virus-antibody complex was then added to the PBMC at multiplicity of infection (M.O.I) of 0.5. The resulting media was then and further incubated the plates at 37° C. in the humidified incubator for infection to take place. Serial diluted compounds were then added and finally media was added such that the final media volume was 200 μl with 2% Fetal Calf Serum. The plates were then incubated at 37° C., 5% CO2 for another 48 hours. The extent of the infection and compound inhibition was measured by plaque reduction assay using BHK cells. Briefly, BHK cells grown in 24-well tissue culture were subjected to supernatants derived from infection containing serial diluted compounds. After additional 4 days, the monolayer of BHK cells were fixed, stained with crystal violet stain and plaques counted. Dose response curves were plotted from the mean absorbance (n=3) versus the log of the concentration of test compounds. The EC50 is calculated by nonlinear regression analysis. A positive control (7-deaza-2′-C-acetylene-adenosine) was used to ensure the quality of the data.

[1] = 4 day CCK-8 cytotoxicity assay using THP-1 cells; format: cell-based; details: human, read-out: Dengue CC50 (THP-1)
Description: 3) Protocols for Automated 4 Days CCK8 (Dojindo) Cytotoxicity Assay in HepG2 and THP-1 Cells • 1. 25 μL of HepG2 suspension containing 1.6×10^4 cells/ml (400 cells/well) or 25 μL of THP-1 suspension containing 8×10^4 cells/ml (2000 cells/well) was dispensed into a clear 384-well plate by GNF dispenser 2B vertical-head. • 2. The plate was pre-incubated for 24 h in the GNF incubator (humidified, 37° C., 5% CO2). • 3. Serial-diluted compound were directly transferred into the culture media in the plate (200× dilution). • 4. Plates were incubated for 96 hours in the GNF incubator. • 5. CCK-8 was thawed on the bench-top, and was pre-diluted with media (2.5× dilutions). • 6. 35 μL of 2.5× diluted CCK8 was added to each well of the plate by GNF dispenser 1C angled-head. • 7. The plates were incubated for 3 hours in the incubator. • 8. The absorbance at 450 nm was measured by Envision. Dengue Assay on Cryopreserved PBMC Cells
THP-1 cells grown in suspension were counted and diluted to 8×10^4 cells/ml in RPMI-1640 media supplemented with 10% fetal bovine serum and 1% penicillin/streptomycin. 25 ul of the THP-1 containing media consisting of 2000 cells were dispensed in 384-well tissue culture plate and pre-incubated at room temperature for 30 minutes, followed by 37° C., 5% CO2 overnight in the humidified incubator. On the next day, serial-diluted compound plates were prepared and 125 nl of compounds at various concentrations were then dispensed into the tissue culture well (200× dilution). The plates were then transferred to 37° C., 5% CO2 humidified incubator for additional 96 hours. Cytotoxicity was measured by CCK-8 assay. Briefly, CCK-8 was thawed on bench top and diluted 2.5× with the growth media. 35 ul of the pre-diluted CCK-8 was then introduced into each well and the plates were then further incubated in 37° C., 5% CO2 humidified incubator for 3 hours. The absorbance was read by Envision at 450 nm. Dose response curves were plotted from the mean absorbance (n=2) versus the log of the concentration of test compounds. The EC50 is calculated by nonlinear regression analysis. A positive control (puromycin) was used to ensure the quality of the data.

[2] = tested on: GT1b HCV luciferase replicon; assay: HCV replicon antiviral EC50 assay; format: cell-based, Hepatitis C virus
in vitro = details: HCV GT1b CC50 (uM)
Dengue polymerase [3] = target: T1, Dengue polymerase (Dengue virus type 2, UniProt P29990); assay: biochemical; details: Elongation
T1 sequence (P29990 2492-3391 limits assumed): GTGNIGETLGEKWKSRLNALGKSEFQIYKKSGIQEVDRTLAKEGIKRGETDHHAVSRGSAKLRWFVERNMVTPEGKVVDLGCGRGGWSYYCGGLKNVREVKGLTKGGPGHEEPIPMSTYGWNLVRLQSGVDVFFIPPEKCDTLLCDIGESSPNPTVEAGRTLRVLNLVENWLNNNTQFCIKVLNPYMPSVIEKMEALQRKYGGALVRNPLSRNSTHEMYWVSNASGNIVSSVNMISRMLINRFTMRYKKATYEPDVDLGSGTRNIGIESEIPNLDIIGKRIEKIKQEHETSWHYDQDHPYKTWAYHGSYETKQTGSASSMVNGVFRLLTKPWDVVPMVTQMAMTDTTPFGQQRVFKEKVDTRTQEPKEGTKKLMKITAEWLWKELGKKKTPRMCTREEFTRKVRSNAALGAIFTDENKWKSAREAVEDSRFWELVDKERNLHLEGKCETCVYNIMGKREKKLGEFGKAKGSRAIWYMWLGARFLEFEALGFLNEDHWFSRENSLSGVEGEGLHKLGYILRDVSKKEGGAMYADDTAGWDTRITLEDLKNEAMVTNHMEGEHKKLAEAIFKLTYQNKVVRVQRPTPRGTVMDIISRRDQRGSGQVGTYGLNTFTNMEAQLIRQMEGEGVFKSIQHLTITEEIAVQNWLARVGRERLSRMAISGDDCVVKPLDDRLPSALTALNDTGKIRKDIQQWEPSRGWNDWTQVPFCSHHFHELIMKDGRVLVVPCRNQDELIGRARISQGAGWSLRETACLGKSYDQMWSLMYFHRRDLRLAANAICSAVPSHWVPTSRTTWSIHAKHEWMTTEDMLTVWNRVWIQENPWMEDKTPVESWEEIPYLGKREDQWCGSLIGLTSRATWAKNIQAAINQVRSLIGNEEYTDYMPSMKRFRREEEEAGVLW

Dengue polymerase [4] = target: T1, Dengue polymerase; assay: biochemical; details: De novo
HCV polymerase = HCV polymerase (Hepatitis C virus genotype 1b, UniProt Q9WMX2); assay: biochemical
Chain of HCV polymerase (Q9WMX2 2420-3010 limits assumed): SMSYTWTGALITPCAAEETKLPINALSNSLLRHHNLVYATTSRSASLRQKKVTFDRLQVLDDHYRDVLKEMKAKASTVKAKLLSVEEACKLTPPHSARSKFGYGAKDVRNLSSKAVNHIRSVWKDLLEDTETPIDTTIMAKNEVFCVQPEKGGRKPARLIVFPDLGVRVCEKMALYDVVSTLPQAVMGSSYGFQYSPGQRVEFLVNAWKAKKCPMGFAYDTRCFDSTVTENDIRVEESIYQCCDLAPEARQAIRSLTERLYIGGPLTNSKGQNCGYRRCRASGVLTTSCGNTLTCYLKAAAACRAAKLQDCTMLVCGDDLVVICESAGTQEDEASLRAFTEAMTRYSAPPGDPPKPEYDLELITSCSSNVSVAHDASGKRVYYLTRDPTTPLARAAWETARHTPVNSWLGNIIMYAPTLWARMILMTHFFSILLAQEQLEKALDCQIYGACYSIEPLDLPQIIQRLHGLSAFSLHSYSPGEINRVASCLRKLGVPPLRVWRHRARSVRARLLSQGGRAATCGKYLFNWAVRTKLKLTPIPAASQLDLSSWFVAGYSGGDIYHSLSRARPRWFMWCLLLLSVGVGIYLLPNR

[5] = tested on: Replicon cells, expressing the GT1b HCV luciferase replicon
[6] = Hepatitis C virus, GT1B, 72 h, read-out: HCV GT1b EC50 (uM)

| Structure (SMILES) | EC50 (Dengue virus; Dengue virus, PBMC, 48 h) [nM] | CC50 at 96 h [1] [nM] | EC50 [2, 6] [µM] | CC50 (in vitro) [µM] | IC50 (Dengue polymerase [3]) [nM] | IC50 (Dengue polymerase [4]) [nM] | IC50 (HCV polymerase) [nM] | EC50 (Dengue virus; 48 hours) [nM] | EC50 ([2]; read-out: HCV GT1b EC50) [µM] | CC50 [5] [nM] |
| --- | --- | --- | --- | --- | --- | --- | --- | --- | --- | --- |
| C#C[C@@]1(O)[C@H](O)[C@@H](COP(=O)(N[C@@H](C)C(=O)OC(CC)CC)Oc2ccc(Cl)cc2)O[C@H]1n1ccc(=O)[nH]c1=O (stereo partly drawn) [Example 1.4, (2S)-pentan-3-yl 2-(((4-chlorophenoxy)(((2R,3R,4R,5R)-5-(2,4-dioxo-3,4-dihydropyrimidin-1(2H)-yl)-4-ethynyl-3,4-dihydroxytetrahydrofuran-2-yl)methoxy)phosphoryl)amino)propanoate] | 60 | > 50000 | 0.087 | > 25 |  |  |  |  |  |  |
| C#C[C@@]1(O)[C@H](O)[C@@H](COP(=O)(N[C@@H](C)C(=O)OCc2ccccc2)Oc2ccc(Cl)cc2)O[C@H]1n1ccc(=O)[nH]c1=O (stereo partly drawn) [Example 1.5, (2S)-benzyl 2-(((4-chlorophenoxy)(((2R,3R,4R,5R)-5-(2,4-dioxo-3,4-dihydropyrimidin-1(2H)-yl)-4-ethynyl-3,4-dihydroxytetrahydrofuran-2-yl)methoxy)phosphoryl)amino)propanoate] | 60 | 8300 | 0.131 | > 25 |  |  |  |  |  |  |
| CC#C[C@@]1(O)[C@H](O)[C@@H](COP(=O)(O)OP(=O)(O)OP(=O)(O)O)O[C@H]1n1ccc(=O)[nH]c1=O [Example 1.9, ((2R,3R,4R,5R)-5-(2,4-dioxo-3,4-dihydropyrimidin-1(2H)-yl)-3,4-dihydroxy-4-(prop-1-yn-1-yl)tetrahydrofuran-2-yl)methyl tetrahydrogen triphosphate] |  |  |  |  | 2100 | 3400 |  |  |  |  |
| C#C[C@@]1(O)[C@H](O)[C@@H](COP(=O)(NCC(=O)OC(C)C)Oc2ccc(Cl)cc2)O[C@H]1n1ccc(=O)[nH]c1=O (stereo partly drawn) [Example 1.6, isopropyl 2-(((4-chlorophenoxy)(((2R,3R,4R,5R)-5-(2,4-dioxo-3,4-dihydropyrimidin-1(2H)-yl)-4-ethynyl-3,4-dihydroxytetrahydrofuran-2-yl)methoxy)phosphoryl)amino)acetate] | 170 | > 50000 | 0.152 | > 25 |  |  |  |  |  |  |
| C#C[C@@]1(O)[C@H](O)[C@@H](COP(=O)(O)OP(=O)(O)OP(=O)(O)O)O[C@H]1n1ccc(=O)[nH]c1=O [Example 1.8, ((2R,3R,4R,5R)-5-(2,4-dioxo-3,4-dihydropyrimidin-1(2H)-yl)-4-ethynyl-3,4-dihydroxytetrahydrofuran-2-yl)methyl tetrahydrogen triphosphate] |  |  |  |  | 1200 | 2900 | 8300 |  |  |  |
| C#C[C@@]1(O)[C@H](O)[C@@H](COP(=O)(N[C@@H](C)C(=O)OC2CCCCC2)Oc2ccc(Cl)cc2)O[C@H]1n1ccc(=O)[nH]c1=O (stereo partly drawn) [Example 1.7, (2S)-cyclohexyl 2-(((4-chlorophenoxy)(((2R,3R,4R,5R)-5-(2,4-dioxo-3,4-dihydropyrimidin-1(2H)-yl)-4-ethynyl-3,4-dihydroxytetrahydrofuran-2-yl)methoxy)phosphoryl)amino)propanoate] | 170 | 13000 | 0.087 | > 25 |  |  |  |  |  |  |
| C#C[C@@]1(O)[C@H](O)[C@@H](COP(=O)(N[C@@H](C)C(=O)O[C@H](C)CC)Oc2ccc(Cl)cc2)O[C@H]1n1ccc(=O)[nH]c1=O (stereo partly drawn) [Example 1.3, (2S)-(R)-sec-butyl 2-(((4-chlorophenoxy)(((2R,3R,4R,5R)-5-(2,4-dioxo-3,4-dihydropyrimidin-1(2H)-yl)-4-ethynyl-3,4-dihydroxytetrahydrofuran-2-yl)methoxy)phosphoryl)amino)propanoate] | 60 | 16000 | 0.095 | > 25 |  |  |  |  |  |  |
| C#C[C@@]1(O)[C@H](O)[C@@H](CO[P@@](=O)(N[C@@H](C)C(=O)OC(C)C)Oc2ccccc2)O[C@H]1n1ccc(=O)[nH]c1=O (single isomer, unassigned) [Example 1] | 400 | > 50000 | 0.066 | > 25 |  |  |  | 230 | 0.098 | > 20000 |
| CC#C[C@@]1(O)[C@H](O)[C@@H](COP(=O)(N[C@@H](C)C(=O)OC(C)C)Oc2ccccc2)O[C@H]1n1ccc(=O)[nH]c1=O (stereo partly drawn) [Example 1.1, (2S)-isopropyl 2-(((((2R,3R,4R,5R)-5-(2,4-dioxo-3,4-dihydropyrimidin-1(2H)-yl)-3,4-dihydroxy-4-(prop-1-yn-1-yl)tetrahydrofuran-2-yl)methoxy)(phenoxy)phosphoryl)amino)propanoate] | 970 | 48000 | 0.243 | > 25 |  |  |  |  |  |  |
